“And” between values parts separate entries of the source, which are not always exact repeats. Equal entries are not always repeated.
Tests used:
[1] = test system: Murine Progenitor Cell (C3H10T1/2); assay: Proteoglycan biosynthesis (35S-GAG) and DNA content in monolayer cultures; assay type: cell-based; settings: for biosynthesis of proteoglycans: all concentrations of PPS
Procedure: FIG. 9. Concentration dependent effects of Pentosan Polysulfate (PPS) on Murine Progenitor Cell (progenitor cells C3H10T1/2) biosynthesis of Proteoglycans (PGs) and DNA content when grown in monolayer cultures. Data shown=Means±SD.
Murine Progenitor cells (cell lines C3H10T1/2 or ATDC5) purchased from RIKEN Cell Bank (Tsukuba, Japan) or human immunoselected Stro-1+ Progenitor cells (Mesoblast Ltd, Melbourne, Australia) were seeded into 50 mL plastic culture flasks containing 1:1 high glucose DMEM/Ham's F-12 medium (Invitrogen) supplemented with 10% FBS (Sigma) and incubated at 37° C., in 5% CO2. After confluence was reached, progenitor cells were released by trypsinization and harvested by centrifugation. Cells were inoculated to 96-well or 24-well plates at a density of 3×10^4 cells or 2×10^5 cells per well. After 48-hour incubation at 37° C., 5% CO2 confluent monolayers were normally established. The medium was then changed to defined medium, which contained different concentrations of PPS with and without rhNC4 and 5 μCi/ml of ^35S—H2SO4 (PerkinElmer, USA). The experiments were generally terminated after 48 hours incubation when proteoglycan biosynthesis was determined by measuring the incorporation of ^35SO4 into the glycosaminoglycans (^35S-GAGs) as described below.
(A) 96-well plates: Cultures were subjected to proteolytic digestion with papain to release glycosaminoglycans. The papain stock solution used contained 2.5 mg/ml papain (Sigma), 7.9 mg/ml cysteine-HCl (Sigma) in papain digest buffer (0.1M NaAc, 5 mM EDTA, pH6.0). 50 μl of papain stock solution was added to each well. The plate was sealed using plastic sheeting and incubated at 65° C. for 2 hours. […]
The ^35SO4-GAGs in the remained solution (200 ul) were precipitated with Cetyl Pyridinium Chloride (CPC) (Sigma). […] Following addition of 3 ml scintillation liquid and vortexing the radioactivity of the ^35S-GAG-CPC complexes were in the samples were measured by scintillation counting (PerkinElmer, USA) and recorded as DPM/sample. The data then was then normalised for DNA and expressed as ^35-S-GAGs/μg DNA.
(B) 24-well plates: After 48 hours incubation in the defined media, the media per well (containing soluble ^35S-labelled proteoglycans) was separated from the cells and transferred to a 2.0 ml microfuge tube. […] The 35S-GAG-CPC complexes collected through the fibre filter and the radioactivity of 35S-GAG was measured using the liquid scintillation analyser as describe above. The cells were extracted with the RNA reagent and aliquots used to determine gene expression and/or the DNA content was measured by the fluorometric assay and the results expressed as ^35-S-GAGs/μg DNA. […]

human progenitor cells = assay: Type II collagen immunostaining of micromass cultures, 10 days; assay type: cell-based; settings: FIG. 18
Procedure: FIG. 18. A: Bar graph showing the Pentosan Polysulfate (PPS) concentration dependent stimulation of type II collagen production by human progenitor cells in micromass cultures for 10 days as determined by scanning and digital analysis of the immuno stained micromass cultures shown in B. (see text for details).
Micromass cultures of progenitor cells were established in 24-well culture plates at a starting density of 8×10^4 cells/micromass in 1 ml of DMEM (+10% FBS) with/without various concentrations of Pentosan Polysulfate as described above. On Day-5 and Day-10 of culture, media was removed and cultures were fixed with Histochoice MB (Amresco, Solon, Ohio, USA) for 20-30 min at RT. The fixed cultures were washed twice in PBS (5 min each time); […] then washed in PBS for 5 min. […]. After rinsing, first with a gentle stream of PBS, followed by washing 3 times (5 min each time) with PBS, the wells were blocked with […] rinsing with a gentle stream of PBS then 3×washing (5 min each time) with PBS, to each micromass culture was added 200 μl of 1× (BCIP/Buffer+NBT) and the plates incubated in the reaction was stopped when the purple color first became established in the section by washing in running water. Plates and wells were then photographed with a digital camera and the images analysed by using Image J® software (http://rsb.info.nih.gov/ij/) on a personal computer.

pentosan polysulfate [PPS]
PPS concentration best with regard to DNA content ([1]; FIG. 9): 5 μl/ml and 10 μl/ml | PPS concentration best with regards to PG synthesis ([1]; FIG. 9): 10 μl/ml | biosynthesis of proteoglycans ([1]; FIG. 9): increased | biosynthesis of proteoglycans ([1]; FIG. 9, listed as polysulfated polysaccharides): chondrogenic promoting effect | Type II Collagen production (human progenitor cells; 0.5-10 μg/ml, 10 days): Increased Type II Collagen production | type II collagen staining (human progenitor cells; 1-10 micrograms/mL for 10 days): intense type II collagen staining | concentration giving maximum type II collagen levels (human progenitor cells; 10 day micromass): 5 µg/mL
